Reference: ChEMBL document CHEMBL1201862, “PubChem BioAssay data set” (2004)
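A five-concentration, 48-hour dose response in 96-well plates underlies each endpoint, interpolated linearly between surrounding concentrations. The concentration for 50% growth inhibition is given as GI50.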 Calls of active or inactive are those of the source. Rule as the data show it: active = GI50 up to about 1.1 µM and inactive = higher.

Columns and labels:
Assay in all cases: DTP human tumour cell line panel, 48 h
A549 = test system: A549
DLD-1 = test system: DLD-1
SK-MEL-28 = test system: SK-MEL-28
ACHN = test system: ACHN
KM-20L2 = test system: KM-20L2
LOX IMVI = test system: LOX IMVI
SN12C = test system: SN12C
786-0 = test system: 786-0
HCT-15 = test system: HCT-15
HOP-62 = test system: HOP-62
EKVX = test system: EKVX
IGROV-1 = test system: IGROV-1
KM12 = test system: KM12
HCT-116 = test system: HCT-116
NCI-H522 = test system: NCI-H522
UACC-62 = test system: UACC-62
NCI-H460 = test system: NCI-H460
TK-10 = test system: TK-10
SF-295 = test system: SF-295
SK-MEL-2 = test system: SK-MEL-2
HT-29 = test system: HT-29
M14 = test system: M14
OVCAR-4 = test system: OVCAR-4
SF-268 = test system: SF-268
UO-31 = test system: UO-31
LXFL 529 = test system: LXFL 529
SK-MEL-5 = test system: SK-MEL-5
SF-539 = test system: SF-539
SNB-78 = test system: SNB-78
U-251 = test system: U-251
NCI-H23 = test system: NCI-H23
CAKI-1 = test system: CAKI-1
OVCAR-8 = test system: OVCAR-8
SNB-19 = test system: SNB-19
HOP-92 = test system: HOP-92
OVCAR-3 = test system: OVCAR-3
SW-620 = test system: SW-620
HCC 2998 = test system: HCC 2998
DMS-273 = test system: DMS-273
UACC-257 = test system: UACC-257
Malme-3M = test system: Malme-3M
NCI-H226 = test system: NCI-H226
COLO 205 = test system: COLO 205
CCRF-CEM = test system: CCRF-CEM
SR = test system: SR
BT-549 = test system: BT-549
OVCAR-5 = test system: OVCAR-5
MDA-MB-435 = test system: MDA-MB-435
T47D = test system: T47D
Hs-578T = test system: Hs-578T
MDA-N = test system: MDA-N
A498 = test system: A498
RPMI-8226 = test system: RPMI-8226
NCI/ADR-RES = test system: NCI/ADR-RES
MDA-MB-231 = test system: MDA-MB-231
SNB-75 = test system: SNB-75
SK-OV-3 = test system: SK-OV-3
MOLT-4 = test system: MOLT-4
MCF7 = test system: MCF7
K562 = test system: K562
DU-145 = test system: DU-145
RXF 393 = test system: RXF 393
HL-60 = test system: HL-60
PC-3 = test system: PC-3

`Cc1ccc(C(=O)NC(C)(C)C)cc1/N=N/N(C)C` was tested, and the GI50 (A549) was > 100 µM (inactive), the GI50 (DLD-1) was > 100 µM (inactive) and the GI50 (SK-MEL-28) was > 100 µM (inactive). For the same compound, the GI50 (ACHN) was > 100 µM (inactive), the GI50 (KM-20L2) was > 100 µM (inactive) and the GI50 (LOX IMVI) was > 100 µM (inactive). For the same compound, the GI50 (SN12C) was > 100 µM (inactive), the GI50 (786-0) was > 100 µM (inactive) and the GI50 (HCT-15) was over 100 µM. For the same compound, the GI50 (HOP-62) was > 100 µM (inactive), the GI50 (EKVX) was > 100 µM (inactive) and the GI50 (IGROV-1) was > 100 µM (inactive). The GI50 (KM12) was > 100 µM (inactive), the GI50 (HCT-116) was > 100 µM (inactive) and the GI50 (NCI-H522) was 50.5 µM (inactive). For the same compound, the GI50 (UACC-62) was > 100 µM (inactive), the GI50 (NCI-H460) was > 100 µM (inactive) and the GI50 (TK-10) was > 100 µM (inactive). For the same compound, the GI50 (SF-295) was > 100 µM (inactive), the GI50 (SK-MEL-2) was > 100 µM (inactive) and the GI50 (HT-29) was > 100 µM (inactive). For the same compound, the GI50 (M14) was > 100 µM (inactive), the GI50 (OVCAR-4) was > 100 µM (inactive) and the GI50 (SF-268) was 42 µM (inactive). For the same compound, the GI50 (UO-31) was > 100 µM (inactive), the GI50 (LXFL 529) was > 100 µM (inactive) and the GI50 (SK-MEL-5) was > 100 µM (inactive). For the same compound, the GI50 (SF-539) was > 100 µM (inactive), the GI50 (SNB-78) was > 100 µM (inactive) and the GI50 (U-251) was > 100 µM (inactive). For the same compound, the GI50 (NCI-H23) was > 100 µM (inactive), the GI50 (CAKI-1) was > 100 µM (inactive) and the GI50 (OVCAR-8) was > 100 µM (inactive). For the same compound, the GI50 (SNB-19) was 60.7 µM (inactive), the GI50 (HOP-92) was > 100 µM (inactive) and the GI50 (OVCAR-3) was 69.5 µM (inactive). For the same compound, the GI50 (SW-620) was > 100 µM (inactive), the GI50 (HCC 2998) was > 100 µM (inactive) and the GI50 (DMS-273) was > 100 µM (inactive). For the same compound, the GI50 (UACC-257) was > 100 µM (inactive).
In the case of `CC(=O)OC1COC(n2nc(/C=C/c3ccc(Cl)cc3)c(=O)n(/N=C/c3ccccc3)c2=S)C(OC(C)=O)C1OC(C)=O` (centres undefined), the GI50 (A549) is reported as > 100 µM (inactive), the GI50 (Malme-3M) is reported as > 100 µM (inactive) and the GI50 (SK-MEL-28) is reported as > 100 µM (inactive). For the same compound, the GI50 (NCI-H226) was > 100 µM (inactive), the GI50 (COLO 205) was > 100 µM (inactive) and the GI50 (CCRF-CEM) was > 100 µM (inactive). For the same compound, the GI50 (SR) was > 100 µM (inactive), the GI50 (ACHN) was > 100 µM (inactive) and the GI50 (LOX IMVI) was > 100 µM (inactive). For the same compound, the GI50 (BT-549) was > 100 µM (inactive), the GI50 (OVCAR-5) was > 100 µM (inactive) and the GI50 (SN12C) was > 100 µM (inactive). For the same compound, the GI50 (MDA-MB-435) was > 100 µM (inactive), the GI50 (T47D) was > 100 µM (inactive) and the GI50 (786-0) was > 100 µM (inactive). The GI50 (HCT-15) was over 100 µM, the GI50 (Hs-578T) was > 100 µM (inactive) and the GI50 (MDA-N) was > 100 µM (inactive). For the same compound, the GI50 (A498) was > 100 µM (inactive), the GI50 (RPMI-8226) was > 100 µM (inactive) and the GI50 (HOP-62) was > 100 µM (inactive). The GI50 (EKVX) was > 100 µM (inactive), the GI50 (IGROV-1) was > 100 µM (inactive) and the GI50 (NCI/ADR-RES) was > 100 µM (inactive). The GI50 (KM12) was > 100 µM (inactive), the GI50 (MDA-MB-231) was > 100 µM (inactive) and the GI50 (HCT-116) was > 100 µM (inactive). For the same compound, the GI50 (NCI-H522) was > 100 µM (inactive), the GI50 (UACC-62) was > 100 µM (inactive) and the GI50 (NCI-H460) was > 100 µM (inactive). For the same compound, the GI50 (TK-10) was > 100 µM (inactive), the GI50 (SF-295) was > 100 µM (inactive) and the GI50 (SK-MEL-2) was > 100 µM (inactive). For the same compound, the GI50 (SNB-75) was > 100 µM (inactive), the GI50 (SK-OV-3) was > 100 µM (inactive) and the GI50 (HT-29) was > 100 µM (inactive). For the same compound, the GI50 (MOLT-4) was > 100 µM (inactive), the GI50 (M14) was > 100 µM (inactive) and the GI50 (OVCAR-4) was > 100 µM (inactive). The GI50 (MCF7) was > 100 µM (inactive), the GI50 (SF-268) was > 100 µM (inactive) and the GI50 (UO-31) was > 100 µM (inactive). For the same compound, the GI50 (K562) was > 100 µM (inactive), the GI50 (SK-MEL-5) was > 100 µM (inactive) and the GI50 (SF-539) was > 100 µM (inactive). For the same compound, the GI50 (U-251) was > 100 µM (inactive), the GI50 (NCI-H23) was > 100 µM (inactive) and the GI50 (CAKI-1) was > 100 µM (inactive). The GI50 (DU-145) was > 100 µM (inactive), the GI50 (OVCAR-8) was > 100 µM (inactive) and the GI50 (SNB-19) was > 100 µM (inactive). The GI50 (RXF 393) was > 100 µM (inactive), the GI50 (HOP-92) was > 100 µM (inactive) and the GI50 (OVCAR-3) was > 100 µM (inactive). The GI50 (SW-620) was > 100 µM (inactive), the GI50 (HCC 2998) was > 100 µM (inactive) and the GI50 (HL-60) was > 100 µM (inactive). The GI50 (PC-3) was > 100 µM (inactive) and the GI50 (UACC-257) was > 100 µM (inactive).
